Assay results published in patent US20180221343A1, “PHARMACEUTICAL COMPOSITION FOR PREVENTING OR TREATING MACULAR DEGENERATION” (KOREA RESEARCH INSTITUTE OF CHEMICAL TECHNOLOGY, priority 2011, published 2018).

Columns and labels:
[1] = system: VEGF receptor 2 (FLK-1); assay: Expression of VEGF receptor 2 (FLK-1) in corneal tissue by RT-PCR; assay type: in vivo, rats; conditions: subconjunctival injection 20 μl; KR 0.3 mg/ml, Avastin 10 mg/ml
Description: The tests were performed for confirming corneal angiogenesis as a marker. To a Trizole™ solution (200 μl), were added each corneal tissue obtained from the rats of Example 1. Total RNAs were isolated and then cDNAs were prepared by using a reverse transcriptase. Each cDNA (5 μl) was mixed with the primer set of FLK-1 and then PCR amplication was performed in a thermocycler under the following conditions; denaturation at 94° C. for 5 minutes, and then 35 cycles of denaturation at 94° C. for 20 seconds, annealing at 58° C. for 1 minute, and extension at 72° C. for 25 seconds. Each PCR product was loaded on 1% agarose gel; and the resulting ethidium bromide fluorescent bands were identified.

[2] = system: retinal angiogenesis; assay: Laser-induced retinal damage model in micro pigs, fluorescein intensity; assay type: in vivo, Yutacan Micro pigs
Description: The tests were performed by using Yutacan Micro pigs (3 kg, male) as animal models having retinal damage (15 pigs for the experiment group). The retinal macular degeneration models were established according to the same procedures as in Brown Norway rats of Example 5. The eye drop formulation (100 μl, 0.9 mg/ml) prepared according to the same procedures as in Example 2 was administered four times per day for 2 weeks. For vitreous injection, the solution of the same compound (20 μl, 0.3 mg/ml) was injected into the vitreous humor once. 2 weeks after the administrations, 1% fluorescein was intravenously injected so as to observe the laser-induced damage site; and the effects of the compound of the present invention, i.e., (2R,3R,4S)-6-amino-4-[N-(4-chlorophenyl)-N-(1H-imidazol-2-ylmethyl)amino]-3-hydroxy-2-methyl-2-dimethoxymethyl-3,4-dihydro-2H-1-benzopyran. The evaluations quantifying the photographs of FIG. 9 were performed by using the Image J (NIH, USA) program and the results thereof were shown in FIG. 10.

[3] = system: retinal angiogenesis; assay: Laser-induced retinal damage model, retinal angiogenesis by dextran-FITC fluorescence; assay type: in vivo, Brown Norway rats; conditions: 2 weeks after administration
Description: The tests were performed by using Brown Norway rats (8 weeks old, male) as animals having retinal damage (15 rats for the experiment group; and 1 rat for normal group, respectively). The retinal Bruch's membrane of each Brown Norway rat was damaged using a Zeiss 532s laser at the intensity of […], 30 ms. On the third day after the laser-damaging, the drug was administered into the vitreous humor in order to observe the retinal vessels. The compound of the present invention, i.e., (2R,3R,4S)-6-amino-4-[N-(4-chlorophenyl)-N-(1H-imidazol-2-ylmethyl)amino]-3-hydroxy-2-methyl-2-dimethoxymethyl-3,4-dihydro-2H-1-benzopyran was administered with the solutions (10 μl of each solution) obtained by dissolving in PBS containing 30% PEG 400 and 10% DMSO, in the concentrations of 0.1 mg/ml and 0.3 mg/ml. Avastin was administered with the solution (10 μl) obtained by dissolving in PBS in the concentration of 2.5 mg/ml. In case of the control group, the PBS (10 μl) was administered. In addition, (2R,3R,4S)-6-amino-4-[N-(4-chlorophenyl)-N-(1H-imidazol-2-ylmethyl)amino]-3-hydroxy-2-methyl-2-dimethoxymethyl-3,4-dihydro-2H-1-benzopyran was intraperitoneally administered with the solution obtained by dissolving in PBS containing 30% PEG 400 and 10% DMSO, in the dose of 25 mg/kg. 2 weeks after the drug administrations, dextran-FITC was injected into the left ventricle in the dose of 25 mg/kg, followed by enucleating the eye after 5 minutes therefrom; and then fixing in a 10% formalin solution. The cornea and the eye lens were removed from the fixed eye, which was then observed under a fluorescence microscope. Angiogenesis was identified by the intensity and leakage of dextran-FITC in the laser-induced damage site; and the results thereof were shown in FIG. 7. The evaluations quantifying the photographs of FIG. 7 were performed by using the Image J (NIH, USA) program and the results thereof were shown in FIG. 8.

[4] = system: corneal angiogenesis; assay: Inhibitory effects against corneal angiogenesis in animal models having corneal damage (subconjunctival injection); assay type: in vivo, Sprague Dawley rats; conditions: subconjunctival injection 20 μl; KR 0.3 mg/ml, Avastin 10 mg/ml; 1 week after administration
Description: The tests were performed by using Sprague Dawley rats (8 weeks old, male) as animals having corneal damage (15 rats for the experiment group; and 1 rat for normal group, respectively). The corneal damage was induced by applying a cotton swab coated with silver nitrate to the surface of the rat corneas, as as to induce a damage having a diameter of 2 mm in the central cornea. On the third day after inducing the corneal damages, we confirmed the establishment of corneal angiogenesis-inducing models and then subconjunctivally injected a solution (20 μl) prepared by dissolving the compound of Preparation Example 23, i.e., (2R,3R,4S)-6-amino-4-[N-(4-chlorophenyl)-N-(1H-imidazol-2-ylmethyl)amino]-3-hydroxy-2-methyl-2-dimethoxymethyl-3,4-dihydro-2H-1-benzopyran (KR-31831) in phosphate buffered saline (PBS) containing 10% PEG 400, in the concentration of 0.3 mg/ml. In case of the control group, the PBS (20 μl) containing 10% PEG 400 was subconjunctivally injected. As a positive control, a solution (20 μl) prepared by dissolving Avastin (used as an angiogenesis inhibitor) in PBS in the concentration of 10 mg/ml was subconjunctivally injected. The evaluations quantifying the photographs of FIG. 1 were performed by using the Image J (NIH, USA) program and the results thereof were shown in FIG. 2.

[5] = Retinal delivery of eye drop formulation (levels in ocular tissues and plasma); assay type: in vivo, Rats; conditions: eye drop 50 μl of Formulation Example 1
Description: We evaluated whether the eye drop formulation containing (2R,3R,4S)-6-amino-4-[N-(4-chlorophenyl)-N-(1H-imidazol-2-ylmethyl)amino]-3-hydroxy-2-methyl-2-dimethoxymethyl-3,4-dihydro-2H-1-benzopyran is penetrated through the cornea and then delivered to the retina. Rats (8 weeks old) were used in the test; and the eye drop formulation (50 μl) prepared in the following Formulation Example 1 was dropped on each rat's eye.

In the case of `COC(OC)[C@]1(C)Oc2ccc(N)cc2[C@H](N(Cc2ncc[nH]2)c2ccc(Cl)cc2)[C@H]1O` [KR-31831, (2R,3R,4S)-6-amino-4-[N-(4-chlorophenyl)-N-(1H-imidazol-2-ylmethyl)amino]-3-hydroxy-2-methyl-2-dimethoxymethyl-3,4-dihydro-2H-1-benzopyran], the “FLK-1 expression in the cornea (control group 100%)” value [1] is reported as “about 30%”, the “intensity at laser-induced damage site (non-drug administered control group = 1)” value ([2]; eye drop formulation 100 μl, 0.9 mg/ml, 4 times per day, 2 weeks) is reported as 0.46±0.17 and the “intensity at laser-induced damage site (non-drug administered control group = 1)” value ([2]; vitreous injection 20 μl, 0.3 mg/ml, once, 2 weeks after) is reported as 0.36±0.14. The “fluorescence intensity at laser-induced damage site (surrounding vessels = 100)” value (from here on “fluorescence intensity”) ([3]; 0.1 mg/ml, VI (10 μl into the vitreous humor)) was 53±2.8, the “fluorescence intensity” value ([3]; 0.3 mg/ml, VI (10 μl into the vitreous humor)) was 45±3.1 and the “fluorescence intensity” value ([3]; 25 mg/kg, IP (intraperitoneal)) was 51±5. The “corneal angiogenesis in comparison with the corneal angiogenesis (100%) of the control group” value [4] was 52.6±10%, the “level in Aqueous humor” value ([5]; 30 minutes) was 1250 ng/mL and the “level in Retina” value ([5]; 30 minutes) was 846 ng/mL. The “level in Vitreous humor” value ([5]; 30 minutes) was 195 ng/mL, the “level in Aqueous humor” value ([5]; 120 minutes) was 827 ng/mL and the “level in Plasma” value ([5]; 120 minutes) was 0.9 ng/mL. The “level in Retina” value ([5]; 120 minutes) was 225 ng/mL and the “level in Vitreous humor” value ([5]; 120 minutes) was 194 ng/mL.
